This note sets out measurements from patent publication US9550775B2, “Substituted triazolopyridines and methods of use thereof” (GENENTECH, INC., priority 2013, dated 2017).

For this assay, the target named is hNav1.7 (Homo sapiens (Human), UniProt Q15858). Put plainly: Tritiated sulfonamide competitive binding to membranes from cells expressing hNav1.7 and the β1 subunit.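 Note: displacement of the tritiated ligand from recombinant cell membranes, read by liquid scintillation counting of filter-bound radioactivity, nonspecific binding defined with 1 µM unlabelled compound.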 The conditions noted are these: 100 pM [3H]compound, 18 h, room temperature; inactivated state of NaV1.7 membrane binding; read-out: NaV1.7 Ligand Binding Assay (IC50).
hNav1.7, sequence (Q15858 other isoform, or with tags, fused parts or gaps): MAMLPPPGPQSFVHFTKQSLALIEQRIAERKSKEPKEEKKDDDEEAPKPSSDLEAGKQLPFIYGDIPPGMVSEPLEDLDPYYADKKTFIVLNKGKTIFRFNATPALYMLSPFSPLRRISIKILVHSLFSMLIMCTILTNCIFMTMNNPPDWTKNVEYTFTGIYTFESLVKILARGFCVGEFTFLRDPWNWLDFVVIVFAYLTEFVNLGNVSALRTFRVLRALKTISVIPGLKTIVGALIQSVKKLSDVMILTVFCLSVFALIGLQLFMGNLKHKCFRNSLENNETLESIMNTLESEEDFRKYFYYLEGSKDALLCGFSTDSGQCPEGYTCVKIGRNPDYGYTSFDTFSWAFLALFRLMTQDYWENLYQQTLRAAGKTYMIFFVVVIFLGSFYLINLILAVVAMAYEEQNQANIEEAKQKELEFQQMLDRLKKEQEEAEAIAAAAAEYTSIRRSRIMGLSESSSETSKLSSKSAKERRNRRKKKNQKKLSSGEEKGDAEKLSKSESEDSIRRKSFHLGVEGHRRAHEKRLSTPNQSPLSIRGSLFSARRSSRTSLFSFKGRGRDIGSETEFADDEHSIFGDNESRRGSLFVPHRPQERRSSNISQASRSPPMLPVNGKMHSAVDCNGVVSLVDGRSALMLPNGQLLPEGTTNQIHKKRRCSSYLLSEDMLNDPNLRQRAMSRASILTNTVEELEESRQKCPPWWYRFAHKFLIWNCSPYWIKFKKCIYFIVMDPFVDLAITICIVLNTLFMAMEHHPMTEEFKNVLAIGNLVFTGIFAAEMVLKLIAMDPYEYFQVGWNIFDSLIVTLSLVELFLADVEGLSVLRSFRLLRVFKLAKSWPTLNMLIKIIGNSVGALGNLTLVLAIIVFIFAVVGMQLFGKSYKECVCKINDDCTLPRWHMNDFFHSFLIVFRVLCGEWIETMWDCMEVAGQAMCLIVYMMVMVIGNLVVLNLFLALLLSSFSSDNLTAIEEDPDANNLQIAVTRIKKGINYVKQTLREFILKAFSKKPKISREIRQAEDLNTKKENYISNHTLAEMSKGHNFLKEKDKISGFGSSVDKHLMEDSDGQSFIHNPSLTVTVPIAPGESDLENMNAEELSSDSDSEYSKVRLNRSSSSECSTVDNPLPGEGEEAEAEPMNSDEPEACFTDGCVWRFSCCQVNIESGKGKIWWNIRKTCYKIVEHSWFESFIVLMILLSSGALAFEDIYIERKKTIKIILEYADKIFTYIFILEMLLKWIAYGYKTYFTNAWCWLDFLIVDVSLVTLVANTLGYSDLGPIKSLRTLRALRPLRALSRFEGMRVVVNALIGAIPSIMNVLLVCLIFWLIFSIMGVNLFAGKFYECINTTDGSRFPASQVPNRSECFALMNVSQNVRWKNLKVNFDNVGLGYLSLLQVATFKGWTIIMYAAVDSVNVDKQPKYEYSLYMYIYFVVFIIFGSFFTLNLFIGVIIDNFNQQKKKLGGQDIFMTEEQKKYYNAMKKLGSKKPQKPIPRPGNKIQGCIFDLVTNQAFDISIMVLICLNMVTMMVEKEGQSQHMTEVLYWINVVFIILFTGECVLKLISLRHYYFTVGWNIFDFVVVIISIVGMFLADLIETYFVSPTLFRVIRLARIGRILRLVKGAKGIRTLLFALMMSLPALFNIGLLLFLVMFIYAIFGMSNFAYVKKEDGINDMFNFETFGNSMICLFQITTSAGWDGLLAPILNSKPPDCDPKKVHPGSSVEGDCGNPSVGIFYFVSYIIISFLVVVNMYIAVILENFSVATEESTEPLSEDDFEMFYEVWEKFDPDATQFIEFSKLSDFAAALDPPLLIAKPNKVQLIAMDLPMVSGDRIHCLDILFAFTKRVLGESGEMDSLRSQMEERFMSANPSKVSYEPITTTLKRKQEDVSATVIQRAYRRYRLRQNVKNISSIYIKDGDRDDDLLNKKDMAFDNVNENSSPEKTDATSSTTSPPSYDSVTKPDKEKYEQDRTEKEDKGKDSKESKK
hNav1.7, sequence (Q07699 19-218 partner): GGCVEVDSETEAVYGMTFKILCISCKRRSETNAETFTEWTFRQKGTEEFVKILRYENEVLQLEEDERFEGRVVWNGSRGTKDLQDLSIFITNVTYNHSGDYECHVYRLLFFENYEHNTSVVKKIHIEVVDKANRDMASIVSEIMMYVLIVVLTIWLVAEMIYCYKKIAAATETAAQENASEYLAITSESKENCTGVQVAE
`CC1(S(=O)(=O)Nc2nnc3cc(COc4cc(Cl)cc(Cl)c4)c(C4CC4)cn23)CC1` [Example 50, N-(6-cyclopropyl-7-((3,5-dichlorophenoxy)methyl)-[1,2,4]-triazolo[4,3-a]pyridin-3-yl)-1-methylcyclopropane-1-sulfonamide]: the IC50 worked out at 4.87 nM.
The value for `CC1(COc2cc3nnc(NS(=O)(=O)C4CC4)n3cc2C2CC2)CCC(F)(F)CC1` [Example 53, N-(6-cyclopropyl-7-((4,4-difluoro-1-methylcyclohexyl)methoxy)-[1,2,4]triazolo[4,3-a]pyridin-3-yl)cyclopropanesulfonamide] was 67.4 nM; that for `CS(=O)(=O)Nc1nnc2cc(OCC3CCCCC3)c(Br)cn12` [Example 61, N-(6-bromo-7-(cyclohexylmethoxy)-[1,2,4]triazolo[4,3-a]pyridin-3-yl)methanesulfonamide] was 90 nM; that for `C=Cc1cn2c(NS(C)(=O)=O)nnc2cc1OCC1(C)CCCCC1` [Example 62, N-(7-((1-methylcyclohexyl)methoxy)-6-vinyl-[1,2,4]triazolo-[4,3-a]pyridin-3-yl)methanesulfonamide] was 65 nM.
Regarding `C=C(C)c1cn2c(NS(C)(=O)=O)nnc2cc1OCC12CC3CC(CC(C3)C1)C2` [Example 63, N-(7-((3r,5r,7r)-adamantan-1-ylmethoxy)-6-(prop-1-en-2-yl)-[1,2,4]triazolopyridin-3-yl)methanesulfonamide], the IC50 is 51 nM.
Regarding `CS(=O)(=O)Nc1nnc2cc(OC[C@H]3CC[C@H](C(F)(F)F)CC3)c(C3CC3)cn12` [Example 68, N-(6-cyclopropyl-7-(((trans)-4-(trifluoromethyl)cyclohexyl)methoxy)-[1,2,4]triazolo[4,3-a]pyridin-3-yl)methanesulfonamide], the concentration for half-maximal inhibition (IC50) was 23 nM.
Consider `CCc1cn2c(NS(=O)(=O)N3CC(F)C3)nnc2cc1OCC12CC3CC(CC(C3)C1)C2` [Example 70, N-(7-((3r,5r,7r)-adamantan-1-ylmethoxy)-6-ethyl-[1,2,4]triazolo[4,3-a]pyridin-3-yl)-3-fluoroazetidine-1-sulfonamide], for which the IC50 is 140 nM.
For the compound `CCS(=O)(=O)Nc1nnc2cc(OCC34CC5CC(CC(C5)C3)C4)c(C3CC3)cn12` [Example 72, N-(7-((3r,5r,7r)-adamantan-1-ylmethoxy)-6-cyclopropyl-[1,2,4]triazolo[4,3-a]pyridin-3-yl)ethanesulfonamide], the IC50 was determined as 4 nM.
As to `CC1(S(=O)(=O)Nc2nnc3cc(OCC45CC6CC(CC(C6)C4)C5)c(C4CC4)cn23)CC1` [Example 74, N-(7-((3r,5r,7r)-adamantan-1-ylmethoxy)-6-cyclopropyl-[1,2,4]triazolo[4,3-a]pyridin-3-yl)-1-methylcyclopropane-1-sulfonamide], the IC50 worked out at 7 nM.
Consider `CS(=O)(=O)Nc1nnc2cc(OCCC34CC5CC(CC(C5)C3)C4)c(C3CC3)cn12` [Example 76, N-(7-(2-43r,5r,7r)-adamantan-1-yl)ethoxy)-6-cyclopropyl-[1,2,4]triazolo[4,3-a]pyridin-3-yl)methanesulfonamide], for which the IC50 is 9 nM.
`O=S(=O)(Nc1nnc2cc(OCCC34CC5CC(CC(C5)C3)C4)c(C3CC3)cn12)C1CC1` [Example 77, N-(7-(2-((3r,5r,7r)-adamantan-1-yl)ethoxy)-6-cyclopropyl-[1,2,4]triazolo[4,3-a]pyridin-3-yl)cyclopropanesulfonamide]: the IC50 was 7 nM.
The result for `O=S(=O)(Nc1nnc2cc(OC3C4CC5CC(C4)CC3C5)c(C3CC3)cn12)C1CC1` (stereo not shown) [Example 79, N-(7-(adamantan-2-yloxy)-6-cyclopropyl-[1,2,4]triazolo-[4,3-a]pyridin-3-yl)cyclopropanesulfonamide] reads 66 nM.
The result for `CS(=O)(=O)Nc1nnc2cc(OCC3CC4C5CCC(C5)C4C3)c(C3CC3)cn12` [Example 80, N-(6-cyclopropyl-7-(((2s,3aR,4S,7R,7aS)-octahydro-1H-4,7-methanoinden-2-yl)methoxy)-[1,2,4]triazolo[4,3-a]pyridin-3-yl)methanesulfonamide] reads 5 nM; that for `CC1(C)[C@H]2CC[C@H](COc3cc4nnc(NS(C)(=O)=O)n4cc3C3CC3)[C@@H]1C2` [Example 83], 3 nM.
The result for `CC1(C)[C@H]2CC[C@H](COc3cc4nnc(NS(=O)(=O)N5CCC5)n4cc3C3CC3)[C@@H]1C2` [Example 85, N-(6-cyclopropyl-7-(((1S,2S,5S)-6,6dimethylbicyclo [3.1.1]heptan-2-yl)methoxy)-[1,2,4]triazolopyridin-3-yl)azetidine-1-sulfonamide] reads 7 nM.
For `CS(=O)(=O)Nc1nnc2cc(OC[C@H]3CC[C@H](C)CC3)c(Br)cn12` [Example 87], the IC50 amounted to 87 nM.
Turning to `CS(=O)(=O)Nc1nnc2cc(OC[C@H]3CC[C@H](C)CC3)c(C3CC3)cn12` [Example 88], the half-inhibitory concentration (IC50) stood at 18 nM.
The value for `O=S(=O)(Nc1nnc2cc(OC3CCC4(CCCCC4)CC3)c(C3CC3)cn12)C1CC1` [Example 90, N-(6-cyclopropyl-7-(spiro[5.5]undecan-3-yloxy)-[1,2,4]triazolo[4,3-a]pyridin-3-yl)cyclopropanesulfonamide] was 51 nM.
For the compound `CS(=O)(=O)Nc1nnc2cc(OCC3(C(F)(F)F)CCCC3)c(C3CC3)cn12` [Example 92, N-(6-cyclopropyl-7-((1-(trifluoromethyl)cyclopentyl)methoxy)-[1,2,4]triazolo[4,3-a]pyridin-3-yl)methanesulfonamide], the IC50 came to 45 nM.
Take `O=S(=O)(Nc1nnc2cc(COc3ccc(Cl)c(Cl)c3)c(C3CC3)cn12)C1CC1` [Example 94, N-(6-cyclopropyl-7-((3,4-dichlorophenoxy)methyl)-[1,2,4]-triazolo[4,3-a]pyridin-3-yl)cyclopropanesulfonamide]: the IC50 turned out to be 7 nM.
The value for `O=S(=O)(Nc1nnc2cc(COc3ccc(Cl)c(Cl)c3)c(C3CC3)cn12)N1CCC1` [Example 96, N-(6-cyclopropyl-7-((3,4-dichlorophenoxy)methyl)-[1,2,4]triazolo[4,3-a]pyridin-3-yl)azetidine-1-sulfonamide] was 19 nM; that for `O=S(=O)(Nc1nnc2cc(COc3cc(Cl)cc(OC(F)(F)F)c3)c(C3CC3)cn12)C1CC1` [Example 97, N-(7-((3-chloro-5-(trifluoromethoxy)phenoxy)methyl)-6-cyclopropyl-[1,2,4]triazolo[4,3-a]pyridin-3-yl)cyclopropanesulfonamide] was 3 nM; that for `CS(=O)(=O)Nc1nnc2cc(COc3cc(Cl)cc(OC(F)(F)F)c3)c(C3CC3)cn12` [Example 98, N-(7-((3-chloro-5-(trifluoromethoxy)phenoxy)methyl)-6-cyclopropyl-[1,2,4]triazolo[4,3-a]pyridin-3-yl)methanesulfonamide] was 3 nM.
Turning to `Cc1cc(Cl)cc(OCc2cc3nnc(NS(C)(=O)=O)n3cc2C2CC2)c1` [Example 102, N-(7-((3-chloro-5-methylphenoxy)methyl)-6-cyclopropyl-[1,2,4]triazolo[4,3-a]pyridin-3-yl)methanesulfonamide], the IC50 came out at 7 nM.
For `Cc1cc(Cl)cc(OCc2cc3nnc(NS(=O)(=O)C4CC4)n3cc2C2CC2)c1` [Example 103, N-(7-((3-chloro-5-methylphenoxy)methyl)-6-cyclopropyl-[1,2,4]triazolo[4,3-a]pyridin-3-yl)cyclopropanesulfonamide], the 50% inhibitory concentration (IC50) is 6 nM.
